Experimental data published in US12054461B2, “Sulfonylurea derivatives and uses thereof” (NodThera Limited, priority 2019, dated 2024).

What was measured:
[1] = test system: IL-1β release upon NLRP3 activation in human whole blood; test: Whole blood (WB) assay; assay type: cell-based; settings: sodium salts tested, LPS 1 μg/ml 3 h, compound 30 min, ATP 5 mM 1 h, IL-1β by HTRF
Experimental: The compounds of the present disclosure were tested for their inhibitory activity against IL-1β release upon NLRP3 activation in human whole blood.
Whole blood was drawn from single healthy donors and treated with sodium heparin anticoagulant. Blood was diluted with cell culture media at a 9:5 ratio, seeded in a 96-well plate and incubated for 3 h with lipopolysaccharide (LPS, 1 μg/ml final concentration diluted 1000× from a 1 mg/ml stock solution). The compounds of the present disclosure were added (a single compound concentration per well) and the blood was incubated for 30 min. Next, the blood was stimulated with ATP (5 mM final concentration diluted 20× from a 100 mM stock solution) for 1 h and the cell culture media from the wells were collected for further analysis.
The release of IL-1β into the media was determined by quantitative detection of IL-1β in the media using HTRF®, CisBio cat. No. 62HIL1BPEH. Briefly, cell culture supernatant were diluted as appropriate to bring IL-1β levels within the HTRF® detection range (36-6500 pg/ml) and subsequently dispensed into the assay plate containing antibodies labelled with the HTRF® donor and acceptor. A microplate spectrophotometer (BMG) was used to detect signals at […] and 620 nm.

[2] = test system: IL-1β release upon NLRP3 activation in peripheral blood mononuclear cells (PBMC); test: PBMC IC50 determination assay; assay type: cell-based; settings: sodium salts tested, LPS 1 μg/ml 3 h, compound 30 min, ATP 5 mM 1 h, IL-1β by HTRF
Experimental: The compounds of the present disclosure were tested for their inhibitory activity against IL-1β release upon NLRP3 activation in peripheral blood mononuclear cells (PBMC).
PBMC were isolated from buffy coats by density gradient centrifugation on Histopaque-1077 (Sigma, cat no. 10771). Isolated cells were seeded into the wells (280,000 cells/well) of a 96-well plate and incubated for 3 h with lipopolysaccharide (LPS, 1 μg/ml diluted 1000× from a 1 mg/ml stock solution). The compounds of the present disclosure were added (a single compound per well) and the cells were incubated for 30 min. Next, the cells were stimulated with ATP (5 mM final concentration diluted 20× from a 100 mM stock solution) for 1 h and the cell culture media from the wells were collected for further analysis.
The release of IL-1β into the media was determined by quantitative detection of IL-1β in the media using HTRF®, CisBio cat. No. 62HIL1BPEH. Briefly, cell culture supernatant were dispensed directly into the assay plate containing antibodies labelled with the HTRF® donor and acceptor. A microplate spectrophotometer (BMG) was used to detect signals at 655 nm and 620 nm. The detection range of IL-1β HTRF® was 39-6500 pg/ml.

| SMILES | IC50 [1] [nM] | IC50 [2] [nM] |
| --- | --- | --- |
| CN(C)C1CCC(N(c2cnn(C)c2)S(=O)(=O)NC(=O)Nc2c3c(cc4c2CCC4)CCC3)C1 (stereo not shown) [Compound 5, 1-{[3-(Dimethylamino)cyclopentyl](1-methyl-1H-pyrazol-4-yl)sulfamoyl}-3-(1,2,3,5,6,7-hexahydro-s-indacen-4-yl)urea] | 3000 to 10000 | 100 to 500 |
| CC(C)n1cc(N(CCN(C)C)S(=O)(=O)NC(=O)Nc2c3c(cc4c2CCC4)CCC3)cn1 [Compound 9, 1-{[2-(Dimethylamino)ethyl][1-(propan-2-yl)-1H-pyrazol-4-yl]sulfamoyl}-3-(1,2,3,5,6,7-hexahydro-s-indacen-4-yl)urea] | < 1000 | < 100 |
| COCC(COC)N(c1cnn(C)c1)S(=O)(=O)NC(=O)Nc1c2c(cc3c1CCC3)CCC2 [Compound 2, 3-[(1,3-Dimethoxypropan-2-yl)(1-methyl-1H-pyrazol-4-yl)sulfamoyl]-1-(1,2,3,5,6,7-hexahydro-s-indacen-4-yl)urea] | 1000 to 3000 | 100 to 500 |
| CN(CCN(c1cnn(C)c1)S(=O)(=O)NC(=O)Nc1c2c(cc3c1CCC3)CCC2)C1COC1 [Compound 11, 1-(1,2,3,5,6,7-Hexahydro-s-indacen-4-yl)-3-({2-[methyl(oxetan-3-yl)amino]-ethyl}(1-methyl-1H-pyrazol-4-yl)sulfamoyl)urea] | 1000 to 3000 | < 100 |
| CN(C)C1CC(N(c2cnn(C)c2)S(=O)(=O)NC(=O)Nc2c3c(cc4c2CCC4)CCC3)C1 (stereo not shown) [Compound 6, 3-{[3-(Dimethylamino)cyclobutyl](1-methyl-1H-pyrazol-4-yl)sulfamoyl}-1-(1,2,3,5,6,7-hexahydro-s-indacen-4-yl)urea] | 1000 to 3000 | < 100 |

Now from value to molecule, other results behind:

| IC50 [1] [nM] | SMILES | IC50 [2] [nM] |
| --- | --- | --- |
| 3000 to 10000 | COCCCN(c1cnn(C)c1)S(=O)(=O)NC(=O)Nc1c2c(cc3c1CCC3)CCC2 [Compound 7, 1-(1,2,3,5,6,7-Hexahydro-s-indacen-4-yl)-3-[(3-methoxypropyl)(1-methyl-1H-pyrazol-4-yl)sulfamoyl]urea] | 100 to 500 |
| < 1000 | CN(C)CCN(c1cnn(C)c1)S(=O)(=O)NC(=O)Nc1c2c(cc3c1CCC3)CCC2 [Compound 8, 3-{[2-(Dimethylamino)ethyl](1-methyl-1H-pyrazol-4-yl)sulfamoyl}-1-(1,2,3,5,6,7-hexahydro-s-indacen-4-yl)urea] | < 100 |
| 1000 to 3000 | Cn1cc(N(CC(C)(C)O)S(=O)(=O)NC(=O)Nc2c3c(cc4c2CCC4)CCC3)cn1 [Compound 3, 1-(1,2,3,5,6,7-Hexahydro-s-indacen-4-yl)-3-[(2-hydroxy-2-methylpropyl)(1-methyl-1H-pyrazol-4-yl)sulfamoyl]urea] | 100 to 500 |
| 1000 to 3000 | Cn1cc(N(CCC(C)(C)O)S(=O)(=O)NC(=O)Nc2c3c(cc4c2CCC4)CCC3)cn1 [Compound 4, 1-(1,2,3,5,6,7-Hexahydro-s-indacen-4-yl)-3-[(3-hydroxy-3-methylbutyl)(1-methyl-1H-pyrazol-4-yl)sulfamoyl]urea] | < 100 |
| 1000 to 3000 | COCCN(c1cnn(C)c1)S(=O)(=O)NC(=O)Nc1c2c(cc3c1CCC3)CCC2 [Compound 1, 1-(1,2,3,5,6,7-Hexahydro-s-indacen-4-yl)-3-[(2-methoxyethyl)(1-methyl-1H-pyrazol-4-yl)sulfamoyl]urea] | < 100 |
| 10000 to 20000 | CN(C)CCCN(c1cnn(C)c1)S(=O)(=O)NC(=O)Nc1c2c(cc3c1CCC3)CCC2 [Compound 10, 3-{[3-(Dimethylamino)propyl](1-methyl-1H-pyrazol-4-yl)sulfamoyl}-1-(1,2,3,5,6,7-hexahydro-s-indacen-4-yl)urea] | 100 to 500 |
